Experimental data reported in patent US8034931B2, “Process for producing substituted aminoquinazolinone derivative, intermediate therefor, and pest control agent” (Nihon Nohyaku Co., Ltd., priority 2003, dated 2011).

How the values were obtained:
Format in all cases: in vivo
[1] = test system: White Peach Scale (Pseudaulacaspis pentagona); assay: Insecticidal effect on white peach scale, sprayed potato tuber (Test Examples 3 and 5); settings: 100 ppm liquid chemical, potato tuber with first-instar larvae, fourteen days after the treatment
Description: Insecticidal Effect on White Peach Scale (Pseudaulacaspis pentagona)
A preparation containing each compound of the present invention listed in Tables 2 to 4 or each comparative compound as an active ingredient was dispersed in and diluted with water to obtain a 100 ppm liquid chemical. A potato tuber with first-instar larvae of white peach scale as parasites was sprayed with the liquid chemical with a spray gun. Fourteen days after the treatment, the living insects were counted. In the same manner as in Test Example 2, the corrected mortality was calculated and the insecticidal effect was judged.
Insecticidal Effect on White Peach Scale (Pseudaulacaspis pentagona) at a Low Dosage
The same test as in Test Example 3 was carried out except for changing the concentration of the liquid chemical to 30 ppm.

[2] = test system: Greenhouse Whitefly (Trialeuroddes vaporariorum); assay: Insecticidal effect on greenhouse whitefly, sprayed tomato leaf (Test Examples 2 and 4); settings: 100 ppm liquid chemical, sprayed tomato leaf, 20 adult whiteflies, four days after the inoculation
Description: Insecticidal Effect on Greenhouse Whitefly (Trialeuroddes vaporariorum)
A preparation containing each compound of the present invention listed in Tables 2 to 4 or each comparative compound as an active ingredient was dispersed in and diluted with water to obtain a 100 ppm liquid chemical. A tomato leaf set in a 20-ml vial with its stalk immersed in water was sprayed with the liquid chemical with a spray gun on a turntable. After air-dryness, the treated leaf was placed in a glass cylinder and inoculated with 20 adult greenhouse whiteflies. After the treatment, the glass cylinder was placed in a greenhouse. Four days after the inoculation, the living insects were counted. The corrected mortality was calculated according to the following equation and the insecticidal effect was judged according to the criterion shown below.
[formula] Criterion for Judgment:
Insecticidal Effect on Greenhouse (Trialeuroddes vaporariorum) at a Low Dosage
The same test as in Test Example 2 was carried out except for changing the concentration of the liquid chemical to 3 ppm.

[3] = test system: Green Peach Aphid (Myzus persicae); assay: Insecticidal effect on green peach aphid, foliar spray on potted Chinese cabbage (Test Example 1); settings: 500 ppm liquid chemical, sprayed on Chinese cabbage stalks and leaves, six days after the spraying
Description: Insecticidal Effect on Green Peach Aphid (Myzus persicae)
A Chinese cabbage plant was planted in each of plastic pots with a diameter of 8 cm and a height of 8 cm, and green peach aphids were propagated on the plant, after which the parasites in each pot were counted. A preparation containing each compound of the present invention listed in Tables 2 to 4 or each comparative compound as an active ingredient was dispersed in and diluted with water to obtain a 500 ppm liquid chemical. The stalks and leaves of the potted Chinese cabbage plants were sprayed with the liquid chemical and air-dried, and then the pots were stored in a greenhouse. Six days after the spraying, green peach aphids parasitic on each Chinese cabbage plant were counted and the control efficacy was calculated by the following equation, whereby the insecticidal effect was judged according to the criterion shown below. Control efficacy=100−{(T×Ca)/(Ta×C)}×100 • Ta: number of parasites before spraying in treated group, • T: number of parasites after spraying in treated group, • Ca: number of parasites before spraying in untreated group, • C: number of parasites after spraying in untreated group.

Compound | Test Example 3: insecticidal effect (corrected mortality) [1] | Test Example 2: insecticidal effect (corrected mortality) [2] | Test Example 1: insecticidal effect (control efficacy) [3]
O=C(c1cccc(C(F)(F)F)c1)N1C(=O)N(N=Cc2cccnc2)Cc2cc(C(F)(C(F)(F)F)C(F)(F)F)ccc21 [compound 26] | A (Corrected mortality 100%) | A (Corrected mortality 100%) | A (Control efficacy 100%)
O=C(c1ccc(C(F)(F)F)cc1)N1C(=O)N(N=Cc2cccnc2)Cc2cc(C(F)(C(F)(F)F)C(F)(F)F)ccc21 [compound 27] | A (Corrected mortality 100%) | A (Corrected mortality 100%) | A (Control efficacy 100%)
O=C(c1ccc(F)cc1)N1C(=O)N(N=Cc2cccnc2)Cc2cc(C(F)(C(F)(F)F)C(F)(F)F)ccc21 [compound 28] | A (Corrected mortality 100%) | A (Corrected mortality 100%) | A (Control efficacy 100%)
COc1ccccc1C(=O)N1C(=O)N(N=Cc2cccnc2)Cc2cc(C(F)(C(F)(F)F)C(F)(F)F)ccc21 [compound 29] | A (Corrected mortality 100%) | A (Corrected mortality 100%) | A (Control efficacy 100%)
Cc1cccc(C(=O)N2C(=O)N(N=Cc3cccnc3)Cc3cc(C(F)(C(F)(F)F)C(F)(F)F)ccc32)c1 [compound 30] | A (Corrected mortality 100%) | A (Corrected mortality 100%) | A (Control efficacy 100%)
O=C(c1ccc(Cl)c(Cl)c1)N1C(=O)N(N=Cc2cccnc2)Cc2cc(C(F)(C(F)(F)F)C(F)(F)F)ccc21 [compound 31] | A (Corrected mortality 100%) | A (Corrected mortality 100%) | A (Control efficacy 100%)
O=C(c1ccc(-c2ccccc2)cc1)N1C(=O)N(N=Cc2cccnc2)Cc2cc(C(F)(C(F)(F)F)C(F)(F)F)ccc21 [compound 32] | A (Corrected mortality 100%) | A (Corrected mortality 100%) | A (Control efficacy 100%)
CN1C(=O)N(N=Cc2cccnc2)Cc2cc(C(F)(C(F)(F)F)C(F)(F)F)ccc21 [compound No. 1, 1-methyl-3-(3-pyridylmethylideneamino)-3,4-dihydro-6-[1,2,2,2-tetrafluoro-1-(trifluoromethyl)ethyl]-2(1H)-quinazolinone] | A (Corrected mortality 100%) | A (Corrected mortality 100%) | A (Control efficacy 100%)
CCCN1C(=O)N(N=Cc2cccnc2)Cc2cc(C(F)(C(F)(F)F)C(F)(F)F)ccc21 [compound No. 3] | A (Corrected mortality 100%) | A (Corrected mortality 100%) | A (Control efficacy 100%)
CC(=O)N1C(=O)N(N=Cc2cccnc2)Cc2cc(C(F)(C(F)(F)F)C(F)(F)F)ccc21 [compound No. 8, 1-acetyl-3-(3-pyridylmethylideneamino)-3,4-dihydro-6-[1,2,2,2-tetrafluoro-1-(trifluoromethyl)ethyl]-2(1H)-quinazolinone] | A (Corrected mortality 100%) | A (Corrected mortality 100%) | A (Control efficacy 100%)
O=C(c1cccc2ccccc12)N1C(=O)N(N=Cc2cccnc2)Cc2cc(C(F)(C(F)(F)F)C(F)(F)F)ccc21 [compound No. 33] | A (Corrected mortality 100%) | A (Corrected mortality 100%) | A (Control efficacy 100%)
